These results are taken from ChEMBL document CHEMBL5291721, “A preclinical secondary pharmacology resource illuminates target-adverse drug reaction associations of marketed drugs” (Nat Commun, 2023).

Usually AC50 stands for the concentration giving half of the maximal activity seen.

SMILES strings stand for the structures.

In assay [1] the target is Hydroxycarboxylic acid receptor 2 (Homo sapiens, UniProt Q8TDS4).
For assay [2], the target named is Sodium channel protein type 5 subunit alpha (Homo sapiens, UniProt Q14524). The class given is functional, cell-based.
Assay [3] concerns the target T1, Androgen receptor (Rattus norvegicus, UniProt P15207).
T1 sequence (P15207 whole entry): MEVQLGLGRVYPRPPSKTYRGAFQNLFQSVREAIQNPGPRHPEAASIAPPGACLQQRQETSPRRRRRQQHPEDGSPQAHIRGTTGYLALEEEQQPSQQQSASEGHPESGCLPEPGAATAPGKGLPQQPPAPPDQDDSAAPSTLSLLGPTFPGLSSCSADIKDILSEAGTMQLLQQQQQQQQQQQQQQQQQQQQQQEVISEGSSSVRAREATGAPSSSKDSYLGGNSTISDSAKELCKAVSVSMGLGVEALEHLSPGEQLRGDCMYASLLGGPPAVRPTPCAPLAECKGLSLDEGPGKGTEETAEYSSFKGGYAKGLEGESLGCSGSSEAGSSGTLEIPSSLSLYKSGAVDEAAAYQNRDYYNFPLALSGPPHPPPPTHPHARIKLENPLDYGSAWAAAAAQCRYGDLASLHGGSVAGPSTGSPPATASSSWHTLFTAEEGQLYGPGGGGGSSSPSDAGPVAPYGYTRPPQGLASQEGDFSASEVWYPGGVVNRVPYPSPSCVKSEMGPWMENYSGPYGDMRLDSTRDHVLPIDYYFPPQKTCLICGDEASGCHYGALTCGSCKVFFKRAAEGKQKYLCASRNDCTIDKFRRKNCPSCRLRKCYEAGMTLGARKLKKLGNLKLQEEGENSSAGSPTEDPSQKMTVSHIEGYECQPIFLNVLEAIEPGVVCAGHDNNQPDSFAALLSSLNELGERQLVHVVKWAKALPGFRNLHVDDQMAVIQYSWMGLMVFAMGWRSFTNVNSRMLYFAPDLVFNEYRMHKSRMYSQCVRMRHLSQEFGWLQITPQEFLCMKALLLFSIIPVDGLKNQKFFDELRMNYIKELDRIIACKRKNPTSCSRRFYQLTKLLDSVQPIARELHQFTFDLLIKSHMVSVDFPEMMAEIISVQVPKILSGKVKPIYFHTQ
The class given is functional.

The next assay addresses T2, Adenosine receptor A1 (Homo sapiens, UniProt P30542).
T2 sequence (P30542 whole entry): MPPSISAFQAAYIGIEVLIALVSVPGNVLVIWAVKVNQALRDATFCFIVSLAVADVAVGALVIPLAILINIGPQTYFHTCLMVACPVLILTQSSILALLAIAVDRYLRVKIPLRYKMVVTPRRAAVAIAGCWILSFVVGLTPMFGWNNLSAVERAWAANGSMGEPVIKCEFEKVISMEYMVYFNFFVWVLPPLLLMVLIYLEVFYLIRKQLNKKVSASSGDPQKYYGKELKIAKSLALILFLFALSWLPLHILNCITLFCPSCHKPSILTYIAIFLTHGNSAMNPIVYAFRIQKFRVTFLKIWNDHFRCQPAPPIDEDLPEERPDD

Assay [4] concerns the target T3, Muscarinic acetylcholine receptor M5 (Homo sapiens, UniProt P08912).
T3 sequence (P08912 whole entry): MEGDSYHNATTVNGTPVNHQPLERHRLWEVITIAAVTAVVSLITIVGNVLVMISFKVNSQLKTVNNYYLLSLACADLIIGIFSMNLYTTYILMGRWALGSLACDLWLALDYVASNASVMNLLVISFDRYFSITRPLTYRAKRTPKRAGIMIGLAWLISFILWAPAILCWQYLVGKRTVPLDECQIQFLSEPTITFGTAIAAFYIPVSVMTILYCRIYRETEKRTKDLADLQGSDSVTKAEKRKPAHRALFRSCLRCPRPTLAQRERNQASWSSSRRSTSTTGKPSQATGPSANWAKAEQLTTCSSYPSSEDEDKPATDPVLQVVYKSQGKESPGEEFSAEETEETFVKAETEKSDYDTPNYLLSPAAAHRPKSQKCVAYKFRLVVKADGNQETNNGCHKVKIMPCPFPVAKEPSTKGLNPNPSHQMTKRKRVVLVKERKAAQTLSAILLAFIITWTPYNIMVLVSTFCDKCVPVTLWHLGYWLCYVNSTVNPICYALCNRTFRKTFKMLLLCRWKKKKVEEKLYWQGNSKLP

A further assay has as its target Cannabinoid receptor 1 (Homo sapiens, UniProt P21554). Type of assay: functional.
Assay [5] deals with Gamma-aminobutyric acid type B receptor subunit 1 (Homo sapiens, UniProt Q9UBS5).
For assay [6], the target named is 5-hydroxytryptamine receptor 6 (Homo sapiens, UniProt P50406).
Assay [7] addresses 5-hydroxytryptamine receptor 7 (Homo sapiens, UniProt P34969).
Another assay addresses T4, Thromboxane A2 receptor (Homo sapiens, UniProt P21731).
T4 sequence (P21731 whole entry): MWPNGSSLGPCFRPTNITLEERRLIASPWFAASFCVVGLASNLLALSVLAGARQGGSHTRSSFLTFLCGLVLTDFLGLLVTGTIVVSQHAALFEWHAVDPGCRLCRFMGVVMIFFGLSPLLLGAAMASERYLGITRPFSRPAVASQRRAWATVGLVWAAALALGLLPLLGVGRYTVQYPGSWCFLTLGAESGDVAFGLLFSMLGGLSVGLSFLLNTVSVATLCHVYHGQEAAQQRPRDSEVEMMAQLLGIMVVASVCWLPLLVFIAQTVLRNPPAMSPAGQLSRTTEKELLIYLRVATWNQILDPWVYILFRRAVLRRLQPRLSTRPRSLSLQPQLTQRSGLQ
Type of assay: functional.

In another assay the target is D(1B) dopamine receptor (Homo sapiens, UniProt P21918).
Assay [8] has as its target 5-hydroxytryptamine receptor 5A (Homo sapiens, UniProt P47898).
In assay [9] the target is Rod cGMP-specific 3',5'-cyclic phosphodiesterase subunit alpha (Homo sapiens, UniProt P16499). Type of assay: functional.
Assay [10] addresses T1, Androgen receptor.
Assay [11] addresses Voltage-dependent L-type calcium channel subunit alpha-1C (Homo sapiens, UniProt Q13936). The class given is functional, cell-based.
Note: assay procedure not described here.

Chain of Cannabinoid receptor 1 (P21554 whole entry): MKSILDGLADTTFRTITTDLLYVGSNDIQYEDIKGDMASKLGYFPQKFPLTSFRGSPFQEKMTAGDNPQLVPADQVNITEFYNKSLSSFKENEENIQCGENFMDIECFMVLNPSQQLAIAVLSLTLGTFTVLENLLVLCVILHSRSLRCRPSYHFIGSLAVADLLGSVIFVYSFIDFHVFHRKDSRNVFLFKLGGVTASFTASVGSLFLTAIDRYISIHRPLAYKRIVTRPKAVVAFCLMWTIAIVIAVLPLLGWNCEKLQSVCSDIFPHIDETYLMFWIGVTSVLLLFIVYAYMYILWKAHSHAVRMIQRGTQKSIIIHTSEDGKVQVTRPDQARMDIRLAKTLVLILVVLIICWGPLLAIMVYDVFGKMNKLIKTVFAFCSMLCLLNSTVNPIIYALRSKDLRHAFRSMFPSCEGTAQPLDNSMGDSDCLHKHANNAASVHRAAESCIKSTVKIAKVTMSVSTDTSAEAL
Chain of Sodium channel protein type 5 subunit alpha (Q14524 whole entry): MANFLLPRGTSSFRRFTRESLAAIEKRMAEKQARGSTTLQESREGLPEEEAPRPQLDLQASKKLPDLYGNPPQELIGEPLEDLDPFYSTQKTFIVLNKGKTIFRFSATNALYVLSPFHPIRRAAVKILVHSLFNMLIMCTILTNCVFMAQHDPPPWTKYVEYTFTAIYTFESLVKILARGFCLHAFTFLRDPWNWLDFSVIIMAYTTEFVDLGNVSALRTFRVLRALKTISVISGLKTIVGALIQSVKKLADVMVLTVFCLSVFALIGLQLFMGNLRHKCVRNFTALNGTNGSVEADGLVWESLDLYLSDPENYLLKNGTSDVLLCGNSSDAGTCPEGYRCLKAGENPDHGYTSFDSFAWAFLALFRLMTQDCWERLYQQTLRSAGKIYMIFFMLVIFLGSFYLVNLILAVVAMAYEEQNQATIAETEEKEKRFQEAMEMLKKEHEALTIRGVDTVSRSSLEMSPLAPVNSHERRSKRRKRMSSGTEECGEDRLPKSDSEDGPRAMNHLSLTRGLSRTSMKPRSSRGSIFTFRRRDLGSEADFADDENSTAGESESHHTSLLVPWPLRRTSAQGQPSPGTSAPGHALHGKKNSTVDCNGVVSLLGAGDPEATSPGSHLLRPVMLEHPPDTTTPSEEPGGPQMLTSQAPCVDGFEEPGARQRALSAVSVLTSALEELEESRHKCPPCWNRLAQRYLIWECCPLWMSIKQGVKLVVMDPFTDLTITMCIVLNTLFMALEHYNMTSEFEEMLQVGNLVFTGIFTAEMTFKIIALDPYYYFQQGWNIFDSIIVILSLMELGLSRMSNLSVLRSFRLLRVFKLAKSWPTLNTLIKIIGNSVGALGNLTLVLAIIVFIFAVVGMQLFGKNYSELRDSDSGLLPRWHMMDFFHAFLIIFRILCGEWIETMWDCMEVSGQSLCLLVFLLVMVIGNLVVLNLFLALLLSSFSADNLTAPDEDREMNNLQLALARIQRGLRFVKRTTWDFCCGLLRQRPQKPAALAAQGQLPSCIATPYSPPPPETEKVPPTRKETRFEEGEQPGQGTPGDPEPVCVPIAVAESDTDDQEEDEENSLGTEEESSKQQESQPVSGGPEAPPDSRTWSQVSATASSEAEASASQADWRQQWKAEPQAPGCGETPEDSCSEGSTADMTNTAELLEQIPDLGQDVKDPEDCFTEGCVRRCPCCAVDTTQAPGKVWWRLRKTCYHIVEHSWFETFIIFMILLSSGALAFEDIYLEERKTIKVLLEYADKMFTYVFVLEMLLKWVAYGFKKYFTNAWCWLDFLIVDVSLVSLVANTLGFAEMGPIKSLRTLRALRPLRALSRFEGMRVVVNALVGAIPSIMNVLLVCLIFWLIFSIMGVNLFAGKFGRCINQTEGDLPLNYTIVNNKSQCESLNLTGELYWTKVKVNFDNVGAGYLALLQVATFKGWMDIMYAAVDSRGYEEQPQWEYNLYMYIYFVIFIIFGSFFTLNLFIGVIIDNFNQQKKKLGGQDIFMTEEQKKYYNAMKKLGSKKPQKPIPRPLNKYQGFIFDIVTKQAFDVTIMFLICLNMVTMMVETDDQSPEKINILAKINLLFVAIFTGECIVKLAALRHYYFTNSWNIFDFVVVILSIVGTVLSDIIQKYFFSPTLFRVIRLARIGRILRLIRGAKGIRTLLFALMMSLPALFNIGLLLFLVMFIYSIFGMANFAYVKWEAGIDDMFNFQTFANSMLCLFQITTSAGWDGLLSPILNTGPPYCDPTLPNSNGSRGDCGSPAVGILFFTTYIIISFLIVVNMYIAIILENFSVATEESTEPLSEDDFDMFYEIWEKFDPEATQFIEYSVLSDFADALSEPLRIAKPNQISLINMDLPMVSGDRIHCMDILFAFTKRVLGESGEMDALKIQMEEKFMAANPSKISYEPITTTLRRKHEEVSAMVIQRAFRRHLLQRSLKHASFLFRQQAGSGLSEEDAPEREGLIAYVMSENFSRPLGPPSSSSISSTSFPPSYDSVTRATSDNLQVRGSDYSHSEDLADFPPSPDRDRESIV
Chain of Hydroxycarboxylic acid receptor 2 (Q8TDS4 whole entry): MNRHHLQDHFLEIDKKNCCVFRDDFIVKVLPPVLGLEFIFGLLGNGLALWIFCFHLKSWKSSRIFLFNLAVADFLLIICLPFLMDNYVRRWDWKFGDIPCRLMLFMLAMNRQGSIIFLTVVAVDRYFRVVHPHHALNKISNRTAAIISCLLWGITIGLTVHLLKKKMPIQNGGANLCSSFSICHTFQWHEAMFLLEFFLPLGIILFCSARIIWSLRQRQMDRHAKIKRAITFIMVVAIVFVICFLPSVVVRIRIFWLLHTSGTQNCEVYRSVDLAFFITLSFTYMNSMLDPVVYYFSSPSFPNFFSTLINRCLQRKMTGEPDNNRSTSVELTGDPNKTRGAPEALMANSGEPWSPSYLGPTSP
Chain of Gamma-aminobutyric acid type B receptor subunit 1 (Q9UBS5 whole entry): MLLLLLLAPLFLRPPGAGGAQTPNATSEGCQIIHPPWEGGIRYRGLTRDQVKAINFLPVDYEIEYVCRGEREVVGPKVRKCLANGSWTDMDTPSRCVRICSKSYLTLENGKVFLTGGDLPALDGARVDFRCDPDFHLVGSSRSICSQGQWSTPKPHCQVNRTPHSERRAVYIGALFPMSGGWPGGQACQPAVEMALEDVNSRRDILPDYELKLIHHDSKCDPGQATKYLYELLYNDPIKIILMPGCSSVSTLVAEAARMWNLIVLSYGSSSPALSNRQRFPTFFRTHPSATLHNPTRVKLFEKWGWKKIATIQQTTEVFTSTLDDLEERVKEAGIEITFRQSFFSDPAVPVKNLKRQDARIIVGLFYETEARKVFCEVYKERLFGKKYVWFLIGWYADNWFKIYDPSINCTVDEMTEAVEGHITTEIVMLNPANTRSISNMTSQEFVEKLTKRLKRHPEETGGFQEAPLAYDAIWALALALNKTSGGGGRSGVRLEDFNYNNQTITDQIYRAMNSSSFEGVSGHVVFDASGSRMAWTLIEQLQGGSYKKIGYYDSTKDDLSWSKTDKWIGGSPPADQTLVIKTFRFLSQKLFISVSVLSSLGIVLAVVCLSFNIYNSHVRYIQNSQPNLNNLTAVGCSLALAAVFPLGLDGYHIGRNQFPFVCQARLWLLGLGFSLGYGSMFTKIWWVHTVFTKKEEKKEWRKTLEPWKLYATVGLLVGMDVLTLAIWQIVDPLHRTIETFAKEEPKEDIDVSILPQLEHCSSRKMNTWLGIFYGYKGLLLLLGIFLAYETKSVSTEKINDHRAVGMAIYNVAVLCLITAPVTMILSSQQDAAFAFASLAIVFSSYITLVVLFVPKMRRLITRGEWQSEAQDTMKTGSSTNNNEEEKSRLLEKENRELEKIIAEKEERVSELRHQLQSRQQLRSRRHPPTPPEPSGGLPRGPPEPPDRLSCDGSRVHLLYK
Chain of 5-hydroxytryptamine receptor 6 (P50406 whole entry): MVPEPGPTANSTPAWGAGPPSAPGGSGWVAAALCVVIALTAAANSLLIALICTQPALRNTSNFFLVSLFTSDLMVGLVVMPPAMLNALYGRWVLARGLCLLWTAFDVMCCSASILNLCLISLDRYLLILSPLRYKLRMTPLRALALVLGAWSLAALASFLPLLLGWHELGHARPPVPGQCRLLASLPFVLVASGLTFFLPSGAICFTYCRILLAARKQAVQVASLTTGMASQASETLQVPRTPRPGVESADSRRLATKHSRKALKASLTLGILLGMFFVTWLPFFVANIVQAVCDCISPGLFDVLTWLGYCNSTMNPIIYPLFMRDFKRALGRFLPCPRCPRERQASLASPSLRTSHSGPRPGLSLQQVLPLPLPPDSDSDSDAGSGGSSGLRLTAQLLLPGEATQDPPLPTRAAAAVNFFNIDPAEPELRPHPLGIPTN
Chain of 5-hydroxytryptamine receptor 7 (P34969 whole entry): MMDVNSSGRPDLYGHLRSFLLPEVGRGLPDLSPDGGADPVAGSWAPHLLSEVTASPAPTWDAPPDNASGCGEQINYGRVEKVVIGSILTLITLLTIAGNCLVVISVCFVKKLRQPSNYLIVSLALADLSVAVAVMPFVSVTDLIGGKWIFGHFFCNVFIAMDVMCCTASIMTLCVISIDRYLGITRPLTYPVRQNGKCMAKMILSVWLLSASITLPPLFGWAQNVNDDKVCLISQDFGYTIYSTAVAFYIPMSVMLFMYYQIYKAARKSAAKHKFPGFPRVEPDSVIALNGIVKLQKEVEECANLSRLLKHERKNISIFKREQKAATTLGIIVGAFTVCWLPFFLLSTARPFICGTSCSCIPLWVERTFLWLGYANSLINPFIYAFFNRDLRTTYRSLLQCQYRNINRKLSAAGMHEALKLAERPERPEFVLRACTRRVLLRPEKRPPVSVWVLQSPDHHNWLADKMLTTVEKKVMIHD

Turning to `CCOC(=O)[C@H](CCc1ccccc1)N[C@@H](C)C(=O)N1[C@H](C(=O)O)C[C@@H]2CCC[C@@H]21`, the half-maximal activity concentration (AC50) in [1] was over 10 µM; in assay [2], over 30 µM.

`CC(=O)Nc1ccc(O)cc1` [ACETAMINOPHEN]: the half-maximal activity concentration (AC50) on Androgen receptor [3] was over 30 µM.

For `C=CCc1ccccc1OCC(O)CNC(C)C` (stereo unspecified) [ALPRENOLOL], the AC50 at Androgen receptor [3] is over 30 µM.

As for `CC[C@H]1OC(=O)[C@H](C)[C@@H](O[C@H]2C[C@@](C)(OC)[C@@H](O)[C@H](C)O2)[C@H](C)[C@@H](O[C@@H]2O[C@H](C)C[C@H](N(C)C)[C@H]2O)[C@](C)(O)C[C@@H](C)CN(C)[C@H](C)[C@@H](O)[C@]1(C)O` [AZITHROMYCIN], the half-maximal activity concentration (AC50) is over 30 µM at Adenosine receptor A1; over 10 µM in [4]; over 10 µM at Cannabinoid receptor 1; over 10 µM in [5]; over 10 µM in [6]; over 10 µM in assay [7]. In assay [2], this compound had an AC50 of over 30 µM.

Consider `CCc1oc2ccccc2c1C(=O)c1cc(I)c(O)c(I)c1` [BENZIODARONE], for which, on Adenosine receptor A1, the AC50 was 18.2 µM.

`CC(C)C[C@H]1C(=O)N2CCC[C@H]2[C@]2(O)O[C@](NC(=O)[C@@H]3C=C4c5cccc6[nH]c(Br)c(c56)C[C@H]4N(C)C3)(C(C)C)C(=O)N12` [BROMOCRIPTINE] registered an AC50 at Thromboxane A2 receptor of over 30 µM.

With `CC1=C(C(=O)O)N2C(=O)[C@@H](NC(=O)[C@H](N)c3ccccc3)[C@H]2SC1` [CEPHALEXIN ANHYDROUS], the AC50 in [1] is over 10 µM.

Regarding `CN(C)CCC(c1ccc(Cl)cc1)c1ccccn1` (stereo unspecified) [CHLORPHENIRAMINE], the AC50 in assay [4] was 6.12 µM; on Cannabinoid receptor 1, over 10 µM; at D(1B) dopamine receptor, over 10 µM; in assay [8], over 10 µM; in assay [6], over 10 µM; in [7], over 10 µM. In addition, the half-maximal activity concentration (AC50) in assay [9] is over 10 µM; in [2] it was over 30 µM.

For the compound `O=C(Cc1ccc(-c2ccccc2)cc1)Nc1ccccn1` [DIFENPIRAMIDE], the AC50 on Adenosine receptor A1 was over 30 µM.

In turn, `Cc1cc(C#N)cc(C)c1Oc1nc(Nc2ccc(C#N)cc2)nc(N)c1Br` [ETRAVIRINE] had an AC50 on Adenosine receptor A1 of 22.5 µM.

Regarding `O=C(OCC(O)CO)c1ccccc1Nc1ccnc2cc(Cl)ccc12` (stereo unspecified) [GLAFENINE], the AC50 on Androgen receptor [3] and on Thromboxane A2 receptor was over 30 µM throughout.

In turn, `CCC1=C(C)CN(C(=O)NCCc2ccc(S(=O)(=O)NC(=O)N[C@H]3CC[C@H](C)CC3)cc2)C1=O` [GLIMEPIRIDE] returned an AC50 on Adenosine receptor A1 of over 30 µM.

Take `C[C@]12CCC(=O)C=C1CC[C@@H]1[C@@H]2[C@@H](O)C[C@@]2(C)[C@H]1CC[C@]2(O)C(=O)CO` [HYDROCORTISONE]: the results for the AC50 (on Androgen receptor [10]; in assay [1]) were over 30 µM and over 10 µM, respectively.

With `CCC(C)n1ncn(-c2ccc(N3CCN(c4ccc(OCC5COC(Cn6cncn6)(c6ccc(Cl)cc6Cl)O5)cc4)CC3)cc2)c1=O` (stereo unspecified) [ITRACONAZOLE], the AC50 (in assay [4]; on Cannabinoid receptor 1; in [5]; in assay [6]; in assay [7]) was over 10 µM throughout.

As to `c1ccc([C@H]2CN3CCSC3=N2)cc1` [LEVAMISOLE], the AC50 in assay [2] is over 50 µM; at Thromboxane A2 receptor, over 30 µM.

`CN1C(C(=O)Nc2ccccn2)=C(O)c2sc(Cl)cc2S1(=O)=O` [LORNOXICAM]: the AC50 on Androgen receptor [10] was over 30 µM.

`C[C@@H](O)[C@H]1C(=O)N2C(C(=O)O)=C(S[C@@H]3CN[C@H](C(=O)N(C)C)C3)[C@H](C)[C@H]12` [MEROPENEM] yielded an AC50 on Thromboxane A2 receptor of over 300 µM.

Turning to `CNC1Cc2ccccc2N(C)c2ccccc21` (stereo unspecified) [METAPRAMINE], the AC50 at Androgen receptor [3] and on Thromboxane A2 receptor was over 30 µM throughout.

In the case of `CC1(C)NC(=O)N(c2ccc([N+](=O)[O-])c(C(F)(F)F)c2)C1=O` [NILUTAMIDE], the AC50 on Adenosine receptor A1 is over 30 µM.

Take `COc1ccc(CC(C)(C)NC[C@H](O)c2cc(O)cc3c2OCC(=O)N3)cc1` [OLODATEROL]: the AC50 is over 30 µM at Androgen receptor [3] and over 50 µM in assay [2].

In the case of `CCCN1C[C@H](CSC)C[C@@H]2c3cccc4[nH]cc(c34)C[C@H]21` [PERGOLIDE], the AC50 in [5] was over 10 µM.

In the case of `C1CCC(C(CC2CCCCN2)C2CCCCC2)CC1` (stereo unspecified) [PERHEXILINE], the AC50 on Androgen receptor [3] is over 30 µM.

Compound `c1cnc(N2CCN(Cc3ccc4c(c3)OCO4)CC2)nc1` [PIRIBEDIL] came in with an AC50 at Thromboxane A2 receptor of over 30 µM.

`COCCCN1CCC(NC(=O)c2cc(Cl)c(N)c3c2OCC3)CC1` [PRUCALOPRIDE] gave an AC50 at Adenosine receptor A1 of over 30 µM.

As to `COc1ccccc1OCC(O)CN1CCN(CC(=O)Nc2c(C)cccc2C)CC1` (stereo unspecified) [RANOLAZINE], the AC50 in [11] is over 50 µM.

On to `Cc1cn([C@H]2C=C[C@@H](CO)O2)c(=O)[nH]c1=O` [STAVUDINE], for which the AC50 on Adenosine receptor A1 is over 30 µM; in assay [4], over 10 µM; at Cannabinoid receptor 1, over 10 µM; in assay [5] it was over 10 µM; in [6], over 10 µM; in [7], over 10 µM. The AC50 at Thromboxane A2 receptor is over 30 µM.

For the compound `Cn1nnc2c(C(N)=O)ncn2c1=O` [TEMOZOLOMIDE], the AC50 in assay [4] is over 10 µM; on Cannabinoid receptor 1, over 10 µM; in assay [5], over 10 µM; in assay [6], over 10 µM; in assay [7], over 10 µM; on Thromboxane A2 receptor it was over 30 µM.

With `Clc1ccc2nsnc2c1NC1=NCCN1` [TIZANIDINE], the AC50 at Androgen receptor [10] is over 30 µM; in assay [1] it was over 10 µM.

On Adenosine receptor A1, `CCOC(=O)[C@H](CCc1ccccc1)N[C@@H](C)C(=O)N1[C@H](C(=O)O)C[C@H]2CCCC[C@@H]21` [TRANDOLAPRIL] displayed an AC50 of over 30 µM.

With `O=C(O[C@H]1C[C@H]2CC[C@@H](C1)[N+]21CCCC1)C(O)(c1ccccc1)c1ccccc1` [TROSPIUM], the AC50 on Androgen receptor [3] is over 30 µM.

As to `N[C@@H]1[C@H]2CN(c3nc4c(cc3F)c(=O)c(C(=O)O)cn4-c3ccc(F)cc3F)C[C@@H]12` [TROVAFLOXACIN], the AC50 at Androgen receptor [3] and on Thromboxane A2 receptor was over 30 µM each time.

Regarding `Cc1cn([C@H]2C[C@H](N=[N+]=[N-])[C@@H](CO)O2)c(=O)[nH]c1=O` [ZIDOVUDINE], the figures for the concentration at half-maximal activity (AC50) in [5], in assay [1] and in assay [2] were over 10 µM, over 10 µM and over 30 µM, respectively.

Turning to `NS(=O)(=O)Cc1noc2ccccc12` [ZONISAMIDE], the AC50 on Androgen receptor [10] was over 10 µM.
